Laboratory results taken from PubChem BioAssay (NCI).
Where “and” joins values, the source holds several entries; their conditions need not be identical. Identical values can stand only once.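 Five compound concentrations were applied to cells in 96-well plates for 48 hours; endpoints were derived by simple linear interpolation of the resulting dose-response curve. The concentration for 50% growth inhibition is given as GI50. The concentration for full growth arrest is given as TGI.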

Experiments:
Experiment in all cases: NCI anticancer screen, dose series, 48 h
[1] = test system: ACHN renal
[2] = test system: EKVX NSCLC
[3] = test system: IGROV1 ovarian
[4] = test system: MOLT-4 leukemia
[5] = test system: NCI/ADR-RES ovarian
[6] = test system: PC-3 prostate
[7] = test system: RPMI-8226 leukemia
[8] = test system: SK-MEL-28 melanoma
[9] = test system: SNB-19 CNS
[10] = test system: SNB-75 CNS

Row | Structure (SMILES) | TGI [1] | GI50 [2] | TGI [2] | TGI [3] | GI50 [4] | GI50 [5] | TGI [5] | GI50 [6] | TGI [6] | TGI [7] | GI50 [8] | TGI [8] | GI50 [9] | TGI [9] | GI50 [10] | TGI [10] | GI50 [1] | GI50 [3] | GI50 [7] | TGI [4]
1 | COc1cc([C@@H]2c3cc4c(cc3[C@@H](O[C@@H]3O[C@@H]5CO[C@@H](c6cccs6)O[C@H]5[C@H](O)[C@H]3O)[C@H]3COC(=O)[C@H]23)OCO4)cc(OC)c1O | 3.69 µM | 4.1 µM | > 100 µM | 36.7 µM | 0.0313 µM | 19 µM | > 100 µM | 1.69 µM | > 69.7 µM | 6.48 µM | 0.44 µM | 2.9 µM | 0.167 µM | > 100 µM | 0.104 µM | 1.56 µM | – | – | – | –
2 | COc1cc([C@@H]2c3cc4c(cc3[C@H](O)[C@H]3COC(=O)[C@H]23)OCO4)cc(OC)c1OC | > 100 µM and 50 µM | – | > 100 µM and 50 µM | – | < 0.01 µM | – | < 0.005 µM | < 0.01 µM | > 100 µM and 50 µM | – | < 0.01 µM | > 100 µM and 50 µM | < 0.01 µM | > 100 µM and 50 µM | < 0.005 µM | – | < 0.01 µM | < 0.005 µM | < 0.01 µM | –
3 | N#Cc1c(NC(=O)CN2CCOCC2)sc2c1CCCC2 | > 25 µM | > 25 µM | > 25 µM | > 25 µM | > 25 µM | > 25 µM | > 25 µM | > 25 µM | > 25 µM | > 25 µM | > 25 µM | > 25 µM | > 25 µM | > 25 µM | > 25 µM | > 25 µM | > 25 µM | > 25 µM | > 25 µM | > 25 µM
4 | CCOC(=O)c1c(C)n2c(=O)cc(C)c3c(OC(C)=O)c(OC(C)=O)cc1c32 | > 71.5 µM | 4.96 µM | 17.8 µM | 41.9 µM | 3.13 µM | 2.69 µM | > 27 µM | 5.65 µM | > 49.7 µM | 8.33 µM | 4.87 µM | 22.5 µM | 5.71 µM | > 65 µM | 6.08 µM | > 28.3 µM | 4.89 µM | 4.78 µM | 2.75 µM | > 25.5 µM
5 | Nc1ccccc1NC(=O)c1ccc(CN2CCC/C(=C\c3cccc(Cl)c3)C2=O)cc1 | 6.32 µM | 0.567 µM | > 100 µM | 13.6 µM | 0.474 µM | 0.198 µM | 6.09 µM | 0.463 µM | 14.1 µM | 4.58 µM | 1.16 µM | 58.9 µM | 0.355 µM | > 100 µM | 0.284 µM | 9.04 µM | 0.129 µM | 0.337 µM | 0.921 µM | > 100 µM
6 | CN(C)CCCNc1nccc(-c2c(-c3ccc(F)cc3)nn3cc(C(F)(F)F)ccc23)n1 | > 25 µM | 18.8 µM | > 25 µM | > 25 µM | 6.37 µM | 8.48 µM | > 25 µM | 9.36 µM | > 25 µM | > 25 µM | 4.29 µM | 8.49 µM | > 19.6 µM | > 25 µM | 5.97 µM | > 16.9 µM | 10.3 µM | 10.2 µM | 10.2 µM | 17.3 µM
7 | Oc1cc(O)c2c(=S)cc(-c3ccc(Cl)cc3)oc2c1 | 11.1 µM | 9.36 µM | 54.1 µM | 16.5 µM | 3.76 µM | 2.8 µM | 10.7 µM | 2.84 µM | 12.3 µM | 9.9 µM | 4.15 µM | 18.4 µM | 3.68 µM | 16.3 µM | 2.23 µM | 13.8 µM | 2.61 µM | 0.533 µM | 2.82 µM | 34.2 µM
8 | O=C1/C(=C/c2ccccc2)CCC/C1=C\c1ccccc1 | 12.1 µM and 29.2 µM and 26.2 µM | 7.8 µM and 15.8 µM | 14.8 µM and 38.2 µM and 39.1 µM | 14.1 µM and 29.4 µM and > 100 µM | 15.1 µM and 11.1 µM | 17.5 µM | 17.1 µM and 95.5 µM | 14.3 µM | 11 µM and 42.5 µM | 36.5 µM and > 20.1 µM and 5.89 µM | 6.84 µM and 18.9 µM | 12.3 µM and 32.7 µM and 38.2 µM | 6 µM and 12.2 µM | 10.9 µM and 29 µM and 31 µM | 6.22 µM | 13.2 µM and 51.2 µM and 52.1 µM | 6.72 µM and 9.22 µM | 8.37 µM and 14.6 µM | 2.89 µM and 2.23 µM | 36.5 µM and 71.1 µM and 70.2 µM
9 | CC[CH2][Sn]([Cl])([Cl])[CH2]CC | 20 µM | 12.3 µM | 26.4 µM | – | 5.35 µM | 15.8 µM | 30.7 µM | 16.2 µM | 35.9 µM | 7.77 µM | 11.4 µM | 23.7 µM | 13.2 µM | 25.9 µM | 6.24 µM | 20.1 µM | 6.88 µM | – | 2.03 µM | > 100 µM
10 | NCC1OC(OC2C(CO)OC(OC3C(O)C(N)CC(N)C3OC3OC(CO)C(O)C(O)C3N)C2O)C(N)C(O)C1O (stereo not given) | > 50 µg/mL | > 50 µg/mL | > 50 µg/mL | > 50 µg/mL | – | > 50 µg/mL | > 50 µg/mL | > 50 µg/mL | > 50 µg/mL | > 50 µg/mL | > 50 µg/mL | > 50 µg/mL | > 50 µg/mL | > 50 µg/mL | > 50 µg/mL | > 50 µg/mL | > 50 µg/mL | > 50 µg/mL | > 50 µg/mL | –
11 | NC(=O)C(NC=O)c1ccccc1 (stereo not given) | > 100 µM | – | > 100 µM | > 100 µM | – | – | > 100 µM | – | > 100 µM | – | – | > 100 µM | – | > 100 µM | – | > 100 µM | – | – | – | > 100 µM
12 | CCC1CC(=O)N(SCC(N)C(=O)O)C1=O (stereo not given) | > 100 µM | – | > 100 µM | > 100 µM | – | – | > 100 µM | – | > 100 µM | > 100 µM | – | > 100 µM | – | > 100 µM | – | > 100 µM | – | – | – | –
13 | CN1c2ccccc2S(=O)(=O)n2c(COc3ccc(Cl)cc3)nnc21 | > 100 µM | – | > 100 µM | > 100 µM | – | – | > 100 µM | – | > 100 µM | – | – | > 100 µM | – | > 100 µM | – | – | – | – | – | > 100 µM
14 | O=C1/C(=C\c2coc3ccccc3c2=O)c2ccccc2N1c1c(Cl)cccc1Cl | > 100 µM | 2.82 µM | > 100 µM | 5.91 µM | 2.98 µM | 3.42 µM | > 100 µM | 1.35 µM | 30.5 µM | 3.95 µM | 3.91 µM | > 100 µM | – | – | 1.91 µM | 37.4 µM | 4.14 µM | 1.62 µM | 1.25 µM | > 100 µM
